Assay results: the NIST ThermoML archive (doi:10.1016/j.jct.2013.08.021)

Columns and labels:
[1] = refractive index (Na D-line) (dimensionless); conditions: 101 kPa, Liquid, Standard Abbe refractometry
[2] = molar heat capacity at constant pressure; conditions: 101 kPa, Liquid, Small sample (50 mg) DSC

CCC[N+]1(C)CCCC1.O=S(=O)([N-]S(=O)(=O)C(F)(F)F)C(F)(F)F
Conditions | molar heat capacity at constant pressure, [2] [J/K/mol] | refractive index, [1]
293.15 K | – | 1.42208
298.15 K | – | 1.42069
303.15 K | – | 1.41928
308.15 K | – | 1.41787
313.15 K | 541 | 1.41644
314.15 K | 544 | –
315.15 K | 548 | –
316.15 K | 551 | –
317.15 K | 554 | –
318.15 K | 556 | 1.415
319.15 K | 559 | –
320.15 K | 561 | –
321.15 K | 563 | –
322.15 K | 565 | –
323.15 K | 567 | 1.41354
324.15 K | 569 | –
325.15 K | 571 | –
326.15 K | 573 | –
327.15 K | 575 | –
328.15 K | 576 | 1.41212
329.15 K | 578 | –
330.15 K | 579 | –
331.15 K | 581 | –
332.15 K | 582 | –
333.15 K | 584 | 1.41073
334.15 K | 585 | –
335.15 K | 586 | –
336.15 K | 588 | –
337.15 K | 589 | –
338.15 K | 590 | 1.40932
339.15 K | 591 | –
340.15 K | 593 | –
341.15 K | 594 | –
342.15 K | 595 | –
343.15 K | 597 | 1.40796
344.15 K | 598 | –
345.15 K | 599 | –
346.15 K | 600 | –
347.15 K | 601 | –
348.15 K | 601 | –
349.15 K | 602 | –
350.15 K | 604 | –
351.15 K | 604 | –
352.15 K | 605 | –
353.15 K | 606 | –
